Tested on: cottontail rabbits
Experiment: no-choice feeding experiment, repellency of cottontail rabbits from treated whole oats
Format: in vivo
Excerpt: As used herein, the term “repellency” means the percent decrease in consumption (or occupancy) of a treated substrate relative to an untreated substrate. […] These values can be used to define a range, such as 50% to 75%, or 75% to 85%, or 25% to 50% decrease in consumption (or occupancy) of a treated substrate relative to an untreated substrate.
We conducted one no-choice feeding experiment for each unique combination of the trigeminal nerve irritant (methyl anthranilate) and the animal repellent (anthraquinone). For each feeding experiment, we used 24-30 cottontail rabbits to evaluate the efficacy of our repellent formulations. For each experiment, we offered untreated food for up to three days of the pretreatment and repellent-treated food during the 1-day test. For each experiment, our three test treatments (n=8−10 rabbits per treatment group) included food treated with (1) the methyl anthranilate alone, (2) the anthraquinone alone and (3) the combination of the methyl anthranilate and the anthraquinone.

Row | SMILES | % Repellency (rabbit, in vivo) | % Repellency (whole oats treated with 5000 ppm MA alone, 1-day no-choice test) | % Repellency (whole oats treated with 5000 ppm MA alone, 1-day no-choice test, listed as MA) | % Repellency (whole oats treated with 10,000 ppm MA alone, 1-day no-choice test)
1 | O=C1c2ccccc2C(=O)c2ccccc21 [anthraquinone, 9,10-anthraquinone] | 36% |  |  | 
2 | COC(=O)c1ccccc1N [methyl anthranilate] |  | 6% | 6% | 62%
